Assay results as given in paper PMC6364417, “Kinase inhibitor library screening identifies synergistic drug combinations effective in sensitive and resistant melanoma cells” (Journal of Experimental & Clinical Cancer Research : CR, 2019).

Key:
Assay in all cases: Kinase inhibitor library screening, PrestoBlue cell viability, 1 or 10 μM, 72 h
[1] = tested on: A375-GP cells (Dabrafenib-resistant); settings: for cell viability (kinase inhibitor library screening): A375 GP
[2] = tested on: 501Mel-XP cells (Vemurafenib-resistant); settings: for cell viability (kinase inhibitor library screening): 501Mel XP
[3] = tested on: 501Mel cells (parental); settings: for cell viability (kinase inhibitor library screening): 501Mel Parental
In short: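 PrestoBlue viability readout after 72 h exposure to each inhibitor at 1 or 10 μM, reported relative to untreated cells as % viability. Lines tested: sensitive parental plus derivatives resistant to Vemurafenib (XP) or Dabrafenib (GP), each run at least in duplicate.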

[4] = tested on: IGR37-GP cells (Dabrafenib-resistant); settings: for cell viability (kinase inhibitor library screening): IGR37 GP
[5] = tested on: IGR37-XP cells (Vemurafenib-resistant); settings: for cell viability (kinase inhibitor library screening): IGR37 XP
[6] = tested on: 501Mel-GP cells (Dabrafenib-resistant); settings: for cell viability (kinase inhibitor library screening): 501Mel GP
[7] = tested on: A375 cells (parental); settings: for cell viability (kinase inhibitor library screening): A375 Parental
[8] = tested on: IGR37 cells (parental); settings: for cell viability (kinase inhibitor library screening): IGR37 Parental
[9] = tested on: A375-XP cells (Vemurafenib-resistant); settings: for cell viability (kinase inhibitor library screening): A375 XP

COc1cc(Nc2ncc(F)c(Nc3ccc4c(n3)NC(=O)C(C)(C)O4)n2)cc(OC)c1OC [R406(free base)]
cell viability (kinase inhibitor library screening) ([1]; 10μΜ, in %): 44.5 | cell viability (kinase inhibitor library screening) ([2]; 1μΜ, in %): 77.6 | cell viability (kinase inhibitor library screening) ([2]; 10μΜ, in %): 29.6 | cell viability (kinase inhibitor library screening) ([3]; 10μΜ, in %): 57.6 | cell viability (kinase inhibitor library screening) ([4]; 1μΜ, in %): 84.7 | cell viability (kinase inhibitor library screening) ([4]; 10μΜ, in %): 45.4 | cell viability (kinase inhibitor library screening) ([5]; 1μΜ, in %): 92.0 | cell viability (kinase inhibitor library screening) ([5]; 10μΜ, in %): 20.0 | cell viability (kinase inhibitor library screening) ([6]; 1μΜ, in %): 93.8 | cell viability (kinase inhibitor library screening) ([6]; 10μΜ, in %): 48.0 | cell viability (kinase inhibitor library screening) ([7]; 1μΜ, in %): 100.1 | cell viability (kinase inhibitor library screening) ([7]; 10μΜ, in %): 50.6 | cell viability (kinase inhibitor library screening) ([8]; 1μΜ, in %): 97.4 | cell viability (kinase inhibitor library screening) ([8]; 10μΜ, in %): 86.8 | cell viability (kinase inhibitor library screening) ([9]; 1μΜ, in %): 103.9 | cell viability (kinase inhibitor library screening) ([9]; 10μΜ, in %): 63.6

CN(C)c1ccc(-c2nc3ncc(Cl)c(N4CCN(CC(=O)Nc5nccs5)CC4)c3[nH]2)cc1 [CCT129202]
cell viability (kinase inhibitor library screening) ([1]; 1μΜ, 72 h): 104.8% | cell viability (kinase inhibitor library screening) ([1]; 10μΜ, 72 h): 45.0% | cell viability (kinase inhibitor library screening) ([2]; 1μΜ, 72 h): 85.2% | cell viability (kinase inhibitor library screening) ([2]; 10μΜ, 72 h): 16.7% | cell viability (kinase inhibitor library screening) ([3]; 1μΜ, 72 h): 93.7% | cell viability (kinase inhibitor library screening) ([3]; 10μΜ, 72 h): 52.8% | cell viability (kinase inhibitor library screening) ([4]; 1μΜ, 72 h): 88.1% | cell viability (kinase inhibitor library screening) ([4]; 10μΜ, 72 h): 76.6% | cell viability (kinase inhibitor library screening) ([5]; 1μΜ, 72 h): 96.6% | cell viability (kinase inhibitor library screening) ([5]; 10μΜ, 72 h): 40.5% | cell viability (kinase inhibitor library screening) ([6]; 1μΜ, 72 h): 99.5% | cell viability (kinase inhibitor library screening) ([6]; 10μΜ, 72 h): 41.1% | cell viability (kinase inhibitor library screening) ([7]; 10μΜ, 72 h): 45.9% | cell viability (kinase inhibitor library screening) ([8]; 1μΜ, 72 h): 95.8% | cell viability (kinase inhibitor library screening) ([8]; 10μΜ, 72 h): 78.6% | cell viability (kinase inhibitor library screening) ([9]; 1μΜ, 72 h): 105.5% | cell viability (kinase inhibitor library screening) ([9]; 10μΜ, 72 h): 49.9%

C[C@]1(O)C[C@@H](c2nc(-c3ccc4ccc(-c5ccccc5)nc4c3)c3c(N)nccn32)C1 [Linsitinib (OSI-906)]
viability at 1 µM ([1]; Homo sapiens, A-375, 72 h, read-out: cell viability, A375 GP, 1μΜ): 67.1% | viability at 10 µM ([1]; Homo sapiens, A-375, 72 h, read-out: cell viability, A375 GP, 10μΜ): 34.4% | viability at 1 µM ([2]; Homo sapiens, 72 h, read-out: cell viability, 501Mel XP, 1μΜ): 75.2% | viability at 10 µM ([2]; Homo sapiens, 72 h, read-out: cell viability, 501Mel XP, 10μΜ): 32.6% | viability at 1 µM ([3]; Homo sapiens, 72 h, read-out: cell viability, 501Mel Parental, 1μΜ): 70.7% | viability at 10 µM ([3]; Homo sapiens, 72 h, read-out: cell viability, 501Mel Parental, 10μΜ): 45.5% | viability at 1 µM ([4]; Homo sapiens, IGR-37, 72 h, read-out: cell viability, IGR37 GP, 1μΜ): 81.6% | viability at 10 µM ([4]; Homo sapiens, IGR-37, 72 h, read-out: cell viability, IGR37 GP, 10μΜ): 25.5% | viability at 1 µM ([5]; Homo sapiens, IGR-37, 72 h, read-out: cell viability, IGR37 XP, 1μΜ): 66.7% | viability at 10 µM ([5]; Homo sapiens, IGR-37, 72 h, read-out: cell viability, IGR37 XP, 10μΜ): 6.7% | viability at 1 µM ([6]; Homo sapiens, 72 h, read-out: cell viability, 501Mel GP, 1μΜ): 83.6% | viability at 10 µM ([6]; Homo sapiens, 72 h, read-out: cell viability, 501Mel GP, 10μΜ): 54.2% | viability at 1 µM ([7]; Homo sapiens, A-375, 72 h, read-out: cell viability, A375 Parental, 1μΜ): 84.1% | viability at 10 µM ([7]; Homo sapiens, A-375, 72 h, read-out: cell viability, A375 Parental, 10μΜ): 42.3% | viability at 1 µM ([8]; Homo sapiens, IGR-37, 72 h, read-out: cell viability, IGR37 Parental, 1μΜ): 107% | viability at 10 µM ([8]; Homo sapiens, IGR-37, 72 h, read-out: cell viability, IGR37 Parental, 10μΜ): 67.7% | viability at 1 µM ([9]; Homo sapiens, A-375, 72 h, read-out: cell viability, A375 XP, 1μΜ): 77.2% | viability at 10 µM ([9]; Homo sapiens, A-375, 72 h, read-out: cell viability, A375 XP, 10μΜ): 44.6%
